Test results: ChEMBL document CHEMBL5241127, “Design, synthesis and biological evaluation of novel 9-N-substituted-13-alkylberberine derivatives from Chinese medicine as anti-hepatocellular carcinoma agents” (Bioorg Med Chem, 2023)

What was measured:
HepG2 = assay: Antiproliferative activity against human HepG2 cells assessed as inhibition of cell growth incubated for 72 hrs by MTT assay; type: functional, cell-based; details: HepG2, 72 h
H22 = assay: Antitumor activity against […] xenografted in ICR mouse assessed as inhibition of tumor growth at 20 mg/kg, iv administered for 21 days and measured every 2 days relative to control; type: functional; details: H22, 504 h, time 21 day, read-out: TGI

| Compound | IC50 (HepG2) [µM] | inhibition in vivo at 20 mg/kg (H22) [%] |
| --- | --- | --- |
| CCCCCCc1c2[n+](cc3c(NCCO)c(OC)ccc13)CCc1cc3c(cc1-2)OCO3 | 4.52 |  |
| CCCCCCCCc1c2[n+](cc3c(NCCN)c(OC)ccc13)CCc1cc3c(cc1-2)OCO3 | 8.61 |  |
| CCCCCCCCc1c2[n+](cc3c(NCCCCN)c(OC)ccc13)CCc1cc3c(cc1-2)OCO3 | 5.17 |  |
| O=P1(N(CCCl)CCCl)NCCCO1 (centres undefined) [CYCLOPHOSPHAMIDE ANHYDROUS] |  | 64.6 |
| CCCCCCCCc1c2[n+](cc3c(NCCCN)c(OC)ccc13)CCc1cc3c(cc1-2)OCO3 | 7.18 |  |

More lines, main results first:

| IC50 (HepG2) [µM] | Compound | inhibition in vivo at 20 mg/kg (H22) [%] |
| --- | --- | --- |
| 2.31 | CCCCCCCCCCCCc1c2[n+](cc3c(NCCO)c(OC)ccc13)CCc1cc3c(cc1-2)OCO3 |  |
| 2.42 | CCCCCCc1c2[n+](cc3c(NCCN(C)C)c(OC)ccc13)CCc1cc3c(cc1-2)OCO3 |  |
| 1.02 | CCCCCCCCCCc1c2[n+](cc3c(NCCN(C)C)c(OC)ccc13)CCc1cc3c(cc1-2)OCO3 |  |
| 2.76 | CCCCCCCCc1c2[n+](cc3c(NCCO)c(OC)ccc13)CCc1cc3c(cc1-2)OCO3 |  |
